Literature values in PMC8745345, “Hydroxy Pentacyclic Triterpene Acid, Kaempferol, Inhibits the Human 5-Hydroxytryptamine Type 3A Receptor Activity” (International Journal of Molecular Sciences, 2022).

Tested on: 5-HT3A
Conditions: cited from earlier work

Compound: Cc1nccn1CC1CCc2c(c3ccccc3n2C)C1=O (stereo not drawn) [ondansetron]
- IC50 (5-HT3 antagonist potency): 4.9 nM
- mode of antagonism: competitive antagonist
- efficacy of antagonist against I5-HT(100uM) of 5-HT3A (serotonin 100 uM): ~100%
